Reference: patent publication US10787430B2, “Hemoglobin modifier compounds and uses thereof” (FronThera U.S. Pharmaceuticals LLC, priority 2016, dated 2020)

Biological target: T1, hemoglobin (20% hct blood) (Homo sapiens, UniProt P68871+P69905)
T1 construct: Normal whole blood was collected from adult healthy donors; from tissue; host or cells: normal human whole blood (red blood cells), adult healthy donors
Experiment: Dose-dependent whole blood OEC studies
Type: cell-based
Details: 37° C., 1 hr; for delta p50 0.2 mM: 0.2 mM compound; for delta p50 0.5 mM: 0.5 mM compound
Experimental: Materials: Normal whole blood was collected from adult healthy donors at the Virginia Commonwealth University after informed consent. The use of these human samples is in accordance with regulations of the IRB for Protection of Human Subjects. Compounds (50 mM-100 mM concentration in DMSO) were stored at 15° C. or room temperature until use.
To 2 ml 20% hct blood, 0.2 or 0.5 or 1 mM compound was added and kept shaking at 37° C. for 1 hr. OEC analysis was performed as described above to determine partial pressure of oxygen (pO2) and Hb oxygen saturation values (sO2). A control without compound but containing equivalent amount of DMSO was performed (1%). GBT440 was used as a positive control. Table 2 below lists the delta p50% values.

T1 sequence (P69905 2-142 limits assumed): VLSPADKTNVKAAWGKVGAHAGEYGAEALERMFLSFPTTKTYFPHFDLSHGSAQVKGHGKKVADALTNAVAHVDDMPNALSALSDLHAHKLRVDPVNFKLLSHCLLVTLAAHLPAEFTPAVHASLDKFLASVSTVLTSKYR
T1 sequence (P68871 2-147 limits assumed): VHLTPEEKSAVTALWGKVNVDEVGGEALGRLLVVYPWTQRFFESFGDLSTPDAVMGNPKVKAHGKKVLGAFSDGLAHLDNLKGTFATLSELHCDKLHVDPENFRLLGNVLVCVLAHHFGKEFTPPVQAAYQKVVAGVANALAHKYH

Row | Compound | delta p50 0.2 mM [%] | delta p50 0.5 mM [%]
1 | CC(C)n1nccc1-c1ncccc1COc1ccc2sncc2c1C=O [Example 11, 5-((2-(1-isopropyl-1H-pyrazol-5-yl)pyridin-3-yl)methoxy)benzo[d]isothiazole-4-carbaldehyde] | −12.80 | −37.60
2 | CC(C)n1nccc1-c1ncccc1COc1ccc2ncsc2c1C=O [Example 12, 6-((2-(1-isopropyl-1H-pyrazol-5-yl)pyridin-3-yl)methoxy)benzo[d]thiazole-7-carbaldehyde] | −26.60 | −58.40
3 | CC(C)n1nccc1-c1ncccc1COc1ccc2scnc2c1C=O [Example 16, 5-((2-(1-isopropyl-1H-pyrazol-5-yl)pyridin-3-yl)methoxy)benzo[d]thiazole-4-carbaldehyde] | −8.90 | −14.70
4 | CC(C)n1nccc1-c1ncccc1COc1ccc2snnc2c1C=O [Example 17, 5-((2-(1-isopropyl-1H-pyrazol-5-yl)pyridin-3-yl)methoxy)benzo[d][1,2,3]thiadiazole-4-carbaldehyde] | −12 | −30
5 | CC(C)n1nccc1-c1ncccc1COc1ccc2nnsc2c1C=O [Example 18, 6-((2-(1-isopropyl-1H-pyrazol-5-yl)pyridin-3-yl)methoxy)benzo[d][1,2,3]thiadiazole-7-carbaldehyde] | −2.80 | −8.10
6 | CC(C)n1nccc1-c1ncccc1COc1ccc2ncncc2c1C=O [Example 19, 6-((2-(1-isopropyl-1H-pyrazol-5-yl)pyridin-3-yl)methoxy)quinazoline-5-carbaldehyde] | −8.20 | −18.10
7 | CC(C)n1ncc(F)c1-c1ncccc1COc1ccc2ncoc2c1C=O [Example 22, 6-((2-(4-fluoro-1-isopropyl-1H-pyrazol-5-yl)pyridin-3-yl)methoxy)benzo[d]oxazole-7-carbaldehyde] | −12.90 | −35.50
8 | [2H]C([2H])(Oc1cccc(O)c1C=O)c1cccnc1-c1c(F)cnn1C(C)C [Example 25, 2-((2-(4-fluoro-1-isopropyl-1H-pyrazol-5-yl)pyridin-3-yl)methoxy-d2)-6-hydroxybenzaldehyde] | −14.30 | −36.10

Further lines, results first:

Row | delta p50 0.2 mM [%] | delta p50 0.5 mM [%] | Compound
9 | −11.10 | −26.10 | [2H]C([2H])(Oc1cc(F)cc(O)c1C=O)c1cccnc1-c1c(F)cnn1C(C)C [Example 26, 4-fluoro-2-((2-(4-fluoro-1-isopropyl-1H-pyrazol-5-yl)pyridin-3-yl)methoxy-d2)-6-hydroxybenzaldehyde]
10 | −11.90 | −40.70 | [2H]C([2H])(Oc1ccc2ncoc2c1C=O)c1cccnc1-c1ccnn1C(C)C [Example 28, 6-((2-(1-isopropyl-1H-pyrazol-5-yl)pyridin-3-yl)methoxy-d2)benzo[d]oxazole-7-carbaldehyde]
11 | −9.80 | −36.10 | [2H]C([2H])([2H])C(n1nccc1-c1ncccc1COc1cc(F)cc(O)c1C=O)C([2H])([2H])[2H] [Example 31, 4-fluoro-2-hydroxy-6-((2-(1-(propan-2-yl-1,1,1,3,3,3-d6)-1H-pyrazol-5-yl)pyridin-3-yl)methoxy)benzaldehyde]
12 | −12.70 | −39.20 | [2H]C([2H])([2H])C(n1ncc(F)c1-c1ncccc1COc1cccc(O)c1C=O)C([2H])([2H])[2H] [Example 32, 2-((2-(4-fluoro-1-(propan-2-yl-1,1,1,3,3,3-d6)-1H-pyrazol-5-yl)pyridin-3-yl)methoxy)-6-hydroxybenzaldehyde]
13 | −12.70 | −39.70 | [2H]C([2H])([2H])C(n1nccc1-c1ncccc1COc1ccc2ncoc2c1C=O)C([2H])([2H])[2H] [Example 33, 6-((2-(1-(propan-2-yl-1,1,1,3,3,3-d6)-1H-pyrazol-5-yl)pyridin-3-yl)methoxy)benzo[d]oxazole-7-carbaldehyde]
